# Measured values from patent US11597962B2, “Rapid selective detection of bacteria” (priority 2017, dated 2023).
# Positions of bridges follow the written chain, without caps; N, C: chain ends. No end group written: not given here.
# Assays:
# [1] = system: Listeria innocua ATCC 33091; experiment: Detection of bacteria using AuNC on LeuA-conjugated PVDF membrane; format: binding; conditions: 5000 cfu in 500 μL water; baseline without bacteria 3880
# Description: Detection of bacteria using AuNC on membrane. A low-fluorescence polyvinylidene difluoride (PVDF) membrane (Thermo Scientific) was cut into 3 small circular pieces (˜0.75 cm radius). The circular membrane was placed on a membrane holder which was connected to a side arm Erlenmeyer flask with vacuum. Each membrane was first washed with copious amount of water by allowing water to filter through the membrane using a gentle vacuum. Membranes 1 and 2 were then conjugated with peptide LeuA by delivering 100 μL peptide solution (0.012 mM). The peptide was allowed to bind the membrane for ˜20 minutes and then excess, unbound peptide was removed by vacuum. Next, the peptide-conjugated membranes were exposed to samples with bacteria (5000 cfu Listeria innocua ATCC 33091 in 500 μL water; membrane 1) or without bacteria (500 μL water; membrane 2). […] Excess AuNC was removed by vacuum and the membrane was allowed to dry for ˜15-20 mins before fluorescence imaging. The fluorescence of each membrane was read using BioRad Imager (FIG. 12). […] The fluorescence for the peptide-conjugated membrane alone (no bacteria; membrane 2) could be due to the binding of AuNC to the peptide. This represents baseline fluorescence (3880) and any increase in fluorescence from baseline represents the presence of bacteria as shown in FIG. 12. […]
# E. coli DHα = experiment: Selectivity of the biosensor assay, E. coli; format: binding, Escherichia coli; conditions: 10^4 cells/10 μL; one value for both Gram-negative bacteria; control 12000±2000
# Protocol: (§1) The selectivity of the biosensor assay was tested with three L. monocytogenes strains (ATCC 43256, ATCC 19116, and Pat Type 1), B. cereus ATCC 14579, S. aureus ATCC 29213, S. enterica, and E. coli DHα. Water (no bacteria) was used as a control. Another control used was with a negative peptide (24-mer) spot, and L. monocytogenes 19116 was used. The biosensor assay was performed as described above.
# [2] = system: L. monocytogenes ATCC 43256; experiment: Detecting L. monocytogenes using AuNC on LeuA-spotted glass surface; format: binding, Listeria monocytogenes; conditions: Leu A 10 μL 0.13 mM, 10^4 cells, AuNC 12 μL; AuNC alone 31860±11608, peptide + AuNC without bacteria 34352±1812
# Protocol: Detecting L. monocytogenes using AuNC on glass surface. An aqueous solution of Leu A (10 μL, 0.13 mM) was spotted on a glass slide (˜4 mm diameter) in triplicate. The peptide spots were allowed to air dry (˜20 min). This was followed by spotting bacteria L. monocytogenes ATCC 43256 (10 μL, 10^4 cells) or no bacteria (10 μL water) on top of the peptide spot. The glass slide was then dipped in MilIQ water for 10 seconds to remove all non-bound bacteria. The slide was allowed to air dry and finally AuNC (12 μL) was deposited on each spot. AuNC (12 μL) alone was also spotted as a control. The mean fluorescence intensity was recorded using Chemidoc imager. The experiment was repeated three times.
# [3] = system: L. monocytogenes strains (ATCC 43256, ATCC 19116, and Pat Type 1); experiment: Selectivity of the biosensor assay, Listeria strains; format: binding, Listeria monocytogenes; conditions: 10^4 cells/10 μL; control sample (water) 12000±2000
# Protocol: as §1
# S. aureus ATCC 29213 = experiment: Selectivity of the biosensor assay, S. aureus; format: binding, Staphylococcus aureus; conditions: 10^4 cells/10 μL; control 12000±2000
# Protocol: as §1
# [4] = system: L. monocytogenes ATCC 19116; experiment: Glass biosensor assay: peptide concentration optimization and limit of detection; format: binding, Listeria monocytogenes
# Protocol: Optimization of peptide concentration. The bio-sensor was optimized by testing different LeuA concentrations. The slide was spotted with 10 μL of varying peptide concentrations (0, 0.013, 0.025, 0.064, or 0.13 mM). The peptide spot was allowed to air dry for 20 min. Next, bacteria (L. monocytogenes ATCC 19116) was spotted at a constant concentration (10 μL, 10^4 cfu). After drying, the slides were dipped in MilIQ water for 10 seconds. Lastly AuNC (12 μl) was spotted to quantify the fluorescence intensity of the spots.
# Sensitivity and selectivity of the biosensor. To obtain the limit of detection (LOD), the biosensor assay was performed with varying number of bacteria in 10 μL sample. An overnight culture of L. monocytogenes ATCC 19116 was diluted to obtain samples with 0, 200, 1000, 2000, and 10000 cfu/10 μL. A glass slide was prepared with peptide spots (Leu A, 0.13 mM, 10 μL) as descried above and bacteria (10 μL) were spotted on the peptide spot followed by AuNC labeling and fluorescence recording using Chemidoc imager.
# [5] = system: S. enterica Serovar Enteritidis; experiment: Selectivity of the biosensor assay, S. enterica; format: binding, Salmonella enterica; conditions: 10^4 cells/10 μL; one value for both Gram-negative bacteria; control 12000±2000
# Protocol: as §1
# B. cereus ATCC 14579 = experiment: Selectivity of the biosensor assay, B. cereus; format: binding, Bacillus cereus; conditions: 10^4 cells/10 μL; control 12000±2000
# Protocol: as §1
# [6] = system: L. monocytogenes ATCC 19116; experiment: LeuA-conjugated PVDF membrane assay: sample volumes and limit of detection; format: binding, Listeria monocytogenes
# Protocol: Detection of L. monocytogenes from different sample volumes. Six circular membranes conjugated with peptide LeuA were prepared as described above. Peptide-conjugated membranes were exposed to three samples of different volumes (500 μL, 1 mL, and 5 mL) each containing same number of L. monocytogenes ATCC 19116 (2000 cfu). Membranes were also exposed to samples (water) with no bacteria (500 μL, 1 mL, and 5 mL) to serve as controls. After passing the samples through the membranes, all membranes were reacted with AuNC (500 μL, 100 μL stock diluted to 500 μL with water) to label the bound bacteria. Excess AuNC from each membrane was removed by vacuum and the membrane was allowed to dry for ˜15-20 mins before fluorescence imaging. The fluorescence of each membrane was read using a BioRad Imager. […] The increase in fluorescence was calculated using the following equation. [formula] Estimation of the limit of detection for L. monocytogenes. Four circular membranes conjugated with peptide LeuA were prepared as described above. The membranes were exposed to samples (500 μL) containing different numbers of L. monocytogenes ATCC 19116 (0, 200, 2000, or 20000 CFU). The rest of the assay was performed as described above.
# S. aureus ATCC 13565 = conditions: observed previously; cited from earlier work
# L. monocytogenes Type I = experiment: Bioactivity agar plate assay (zone of inhibition); format: cell-based, Listeria monocytogenes; conditions: peptide 2.3, 0.23, 0.023 mM, 10 μL spots; 37° C., 24 hours
# Protocol: Bioactivity. LeuA and negative peptide were checked for activity using agar plate inoculated with L. monocytogenes Type I. Briefly, a TSB agar plate was spotted with different concentrations of peptide (2.3, 0.23, and 0.023 mM, dissolved in water) with a spot volume of 10 μL. Then the 6 mL soft agar inoculated with 60 μL L. monocytogenes (overnight culture, undiluted) was plated over the TSB agar. The plate was incubated at 37° C. and zone of inhibition was checked after 24 hours.
# L. monocytogenes species = conditions: against L. monocytogenes species; cited from earlier work
# L. monocytogenes 19116 = experiment: Detection of Listeria monocytogenes in spiked milk sample (glass biosensor); format: binding; conditions: whole milk (3.5% fat) diluted with water, 10^3 cells/μL
# Protocol: Detection of Listeria monocytogenes in spiked milk sample. A spiked milk sample was prepared using milk (3.5% fat, 1 mL) diluted with water (9 mL). L. monocytogenes 19116 was added to the diluted milk to obtain a bacterial concentration of 10^4 cfu/10 μL. Water was used as a control. The biosensor assay was performed on the spiked milk sample as described above.
Substance,fluorescence of membrane [1],fluorescence of AuNC-labeled bound bacteria (E. coli DHα),MFI of AuNC-labeled bacteria bound to peptide [2],fluorescence of AuNC-labeled bound bacteria [3],fluorescence of AuNC-labeled bound bacteria (S. aureus ATCC 29213),fluorescence of bound bacteria ([4]; 2000 cfu bacteria per spot),fluorescence of bound bacteria ([4]; 10000 cfu bacteria per spot),"fluorescence of bound bacteria (highest) ([4]; peptide concentration 0.13 mM, 10 μL, bacteria 10^4 cfu/10 μL)",fluorescence of AuNC-labeled bound bacteria [5],fluorescence of AuNC-labeled bound bacteria (B. cereus ATCC 14579),percent increase in fluorescence ([6]; 200 cfu in 500 μL) [%],percent increase in fluorescence ([6]; 2000 cfu in 500 μL) [%],"percent (%) increase in fluorescence ([6]; 2000 cfu in 500 μL, 1 mL and 5 mL)",percent increase in fluorescence ([6]; 20000 cfu in 500 μL) [%],binding of bacteria to peptide (S. aureus ATCC 13565),activity in bioactivity plate assay (zone of inhibition) (L. monocytogenes Type I),minimum inhibitory concentration (MIC) (L. monocytogenes species),fluorescence of spiked milk sample compared to the milk alone (L. monocytogenes 19116)
Leucocin A (KYYGNGVHCTKSGCSVNWGEAFSAGVHRLANGGNGFW-OH; disulfide 9-14 (inferred)) [LeuA],7776,12000±800,62390±5975,28000-33000,18000±2100,31473±2932,30842±4696,21275±2177,12000±800,13000±1600,11.7,15.9,15-20%,26.1,Low binding,active,low nanomolar range,significantly higher fluorescence
negative control (20-mer) peptide: short sequence (20-mer; SEQ ID NO:2) derived from LeuA known not to bind L. monocytogenes (NGVHATKSGASVNWGEAFSA; Control Leucocin A fragment) [reference compound],–,–,–,12164±2937,–,–,–,–,–,–,–,–,–,–,–,inactive,–,–
